The subject of test [1] is differentiated U937 cells. Nature of the test: LPS-induced TNFα release in differentiated U937 cells. Format: cell-based. The note with it: Homo sapiens, U-937, read-out: IC50 Values LPS-induced TNFα release d-U937 cells.
Experimental: (§1) U937 cells, human monocytic cell line, were differentiated to macrophage-type cells by incubation with phorbol myristate acetate (PMA; 100 ng/ml) for 48 to 72 hr. Where appropriate, cells were pre-incubated with final concentrations of compound for 2 hr. Cells were then stimulated with 0.1 μg/ml of LPS (from E. Coli: O111:B4, Sigma) for 4 hr, and the supernatant collected for determination of TNFα concentration by sandwich ELISA (Duo-set, R&D systems). […] THP-1, human monocytic cell line, was also used for this assay. THP-1 cells were stimulated with 3 μg/ml of LPS (from E. Coli: O111:B4, Sigma) for 4 hr, and the supernatant collected for determination of TNFα concentration.
The test system of test [2] is THP-1 cells. Nature of the test: LPS-induced TNFα release in THP-1 cells. Particulars: Homo sapiens, read-out: IC50 Values LPS-induced TNFα release THP1 cells. The format is cell-based.
Experimental: as §1
Test [3] has as its system differentiated U937 cells. Nature of the test: LPS-induced IL-8 release in differentiated U937 cells. Format: cell-based, human.
Experimental: U937 cells, human monocytic cell line, were differentiated to macrophage-type cells by incubation with phorbol myristate acetate (PMA; 100 ng/ml) for 48 to 72 hours. Cells were pre-incubated with final concentrations of compound for 2 hrs. Cells were then stimulated with 0.1 μg/ml of LPS (from E. Coli: O111:B4, Sigma) for 4 hrs, and the supernatant collected for determination of the IL-8 concentration by sandwich ELISA (Duo-set, R&D systems).
The test system of test [4] is BEAS2B cells. Nature of the test: Poly I:C-induced ICAM-1 induction in BEAS2B cells. Format: cell-based, human. The note with it: at 10 ug/ml.
Experimental: Poly I:C (1 ug/ml) (Invivogen Ltd., San Diego, Calif.) was transfected into BEAS2B cells (human bronchial epithelial cells, ATCC) with Oligofectamine (Invitrogen, Carlsbad, Calif.). Cells were pre-incubated with final concentrations of compound for 2 hrs. The level of ICAM1 expression on the cell surface was determined by cell-based ELISA. Briefly, at 18 hrs after poly I:C transfection, cells were fixed with 4% formaldehyde in PBS. After quenching endogenous peroxidase by adding 0.1% sodium azide and 1% hydrogen peroxide, cells were washed with wash-buffer (0.1% Tween in PBS: PBS-Tween). After blocking the wells with 5% milk in PBS-Tween for 1 hr, the cells were incubated with anti-human ICAM-1 antibody (Cell Signaling Technology, Danvers, Mass.) in 1% BSA PBS overnight at 4° C. Cells were washed with PBS-Tween and incubated with the secondary antibody (HRP-conjugated anti-rabbit IgG, Dako Ltd., Glostrup, Denmark).
Test [5] relates to sputum macrophages. Nature of the test: Sputum macrophage assay (LPS-induced IL-8 release). Format: cell-based, human.
Test [6] has as its system BEAS2B cells. Nature of the test: Rhinovirus-induced ICAM-1 expression in BEAS2B cells. The format is cell-based, human.
The test system of test [7] is BEAS2B cells. Nature of the test: Rhinovirus-induced IL-8 release in BEAS2B cells. Format: cell-based, human.
For test [8], the system named is Human rhinovirus RV16 (HRV). Nature of the test: Rhinovirus-titre assay in MRC5 cells. Format: cell-based. The note with it: concentration range up to 1.9 μM.
Experimental: All titrations were performed by infecting confluent Hela cell monolayers with serially diluted supernantant (10^−1 to 10^−5) and assessing cytopathetic effect by MTT assay 4 days after infection. The amount of virus required to infect 50% of Hela cells was calculated in each treatment as TCID50 U/mL. Compounds were added 24 and 2 hr before HRV infection and 1 hr after infection when non-infected HRV was washed out.
The test system of test [9] is neutrophil and macrophage accumulation into airways. Nature of the test: Cigarette smoke model. The arrangement: dose or concentration left out as unconfirmed. Format: in vivo, A/J mice. Particulars: (35 μl, bid, in).
Experimental: A/J mice (males, 5 weeks old) were exposed to cigarette smoke (4% cigarette smoke, diluted with compressed air) for 30 min/day for 11 days using a Tobacco Smoke Inhalation Experiment System for small animals (Model SIS-CS; Sibata Scientific Technology, Tokyo, Japan). Test substances were given intra-nasally (35 μl of solution in 50% DMSO/PBS) and therapeutically twice daily for 3 days after the final cigarette smoke exposure. Twelve hours after the last dosing, animals were anesthetized, the trachea cannulated and bronchoalveolar lavage fluid (BALF) was collected. The numbers of alveolar macrophages and neutrophils were determined by FACS analysis (EPICS® ALTRA II, Beckman Coulter, Inc., Fullerton, Calif., USA) using anti-mouse MOMA2 antibody (macrophage) or anti-mouse 7/4 antibody (neutrophil).
Test [10] relates to bronchoconstrictor response to ovalbumin challenge (sGaw). Nature of the test: Ovalbumin challenge/parainfluenza infection model. The format is in vivo, guinea-pigs. Particulars: 1.5 mg per day nebulised, sensitized animals treated with PIV3 medium (initial studies).

For `Cc1ccc(-n2nc(C(C)(C)C)cc2NC(=O)Nc2ccc(OCCN3CCOCC3)c3ccccc23)cc1` [BIRB796], the half-inhibitory concentration (IC50) (usually the concentration that gives 50% inhibition) amounted to 20 nM in test [1] and 12 nM in test [2]. For the same molecule, the “maximum inhibition of LPS-induced IL-8 release in differentiated U937 cells” value in [3] came to 31%. The “effect on poly I:C induced ICAM1 expression in BEAS2B cells” value in test [4] is “no effect”. The “IC50 Values Sputum macrophages LPS-induced IL-8 release” value in test [5] is “NSE @ 19 μM”. For the same molecule, the “IC50 Values BEAS2B cells Rhinovirus-induced ICAM expression” value in test [6] is given as “NSE @ 1.9 μM”. Further, in [7], the “IC50 Values BEAS2B cells Rhinovirus-induced IL-8 release” value was “NSE @ 1.9 μM”. Moreover, the “effect on viral replication” value in [8] is recorded as “without effect”.

Consider `CCC(=O)O[C@]1(C(=O)SCF)[C@H](C)C[C@H]2[C@@H]3C[C@H](F)C4=CC(=O)C=C[C@]4(C)[C@@]3(F)[C@@H](O)C[C@@]21C` [fluticasone propionate], for which, in test [9], the “macrophage accumulation into airways” value is on record as “did not inhibit” and the “neutrophil accumulation into airways” value is “did not inhibit”. Besides, the “ovalbumin-mediated lung function changes” value in test [10] is “inhibited”.

(Values after patent US9242960B2, “P38MAP kinase inhibitors” (Respivert Ltd., priority 2009, dated 2016).)
